Earlier results in patent US20250320459A1, “FUNCTIONALIZED MOLECULAR LAYERS AND SCAFFOLDS, AND METHODS OF PREPARATION AND USE THEREOF” (PURDUE RESEARCH FOUNDATION, priority 2022, published 2025).

Molecular target: WGA

KD, monovalent interactions between WGA and GlcNAc (monovalent): micromolar to millimolar range
KD, multivalent interactions between WGA and GlcNAc (multivalent): nanomolar range
Structure (SMILES): CC(=O)N[C@H]1C(O)O[C@H](CO)[C@@H](O)[C@@H]1O (stereo partly drawn) [GlcNAc, N-acetyl-D-glucosamine]
